This passage reports IC50 results from patent US20220144823A1, “PYRAZOLOPYRIDINE DERIVATIVES AS INHIBITORS OF PASK” (Galapagos NV, priority 2019, published 2022).

Experiment [1] has as its target T1, autophosphorylation of PASK at position Thr307 in Hek293 cells overexpressing PASK (Homo sapiens, UniProt Q96RG2).
T1 construct: expressed in transfected cells; host or cells: Hek293
Nature of the experiment: PASK autophosphorylation ELISA assay. It is filed as cell-based. The following applies: 24 h, ELISA readout. The method, then: The compounds of the invention are profiled in a cellular assay to determine their capacity to reduce the autophosphorylation levels of PASK at position Thr307 in Hek293 cells overexpressing PASK, using an ELISA-based readout.
At day 1, a 96-well cell assay plate is coated with poly-D-lysine (50 μL/well of a 0.05 mg/mL solution in PBS) and incubated for 1 h at 37° C. The plate is subsequently washed once with PBS and stored dry at RT until further use. Hek293 cells are transfected with a pcDNA3.1-PASK(FL,WT)-FLAG construct (SEQ ID1) and seeded in culture medium (DMEM+10% FBS) in a poly-D-lysine coated 96-well plate (0.3 μL JetPEI DNA transfection reagent (Polyplus-transfection SA, Cat #101-40), 10 ng construct and 90 ng pBluescript, 60000 cells per well). […] The cell plate is incubated overnight at 37° C., 5% CO2.
At day 2, the medium of the assay plate is removed and 100 μL of fresh medium (DMEM+10% FBS) is added to the plate. Cell plate is further incubated overnight at 37° C., 5% CO2. This to allow further expression of PASK protein.
At day 3, the medium is removed and replaced with 100 μL of serum free medium (DMEM). Test compound is added to the plate (8 points concentration curve with 1/3 dilution steps starting from 30 μM final concentration in 0.3% DMSO final). In the positive and negative control wells of the plate, 0.3% DMSO final is added. For each tested condition, duplicates are made for ELISA readout. Cell plate is incubated 24 h at 37° C., 5% CO2.
At day 4, the medium is removed and the plate is washed once with 100 μL/well PBS. Cells are lysed by adding 50 μL/well western blot lysis buffer (20 mM Tris pH 7.5, 150 mM NaCl and 1% Triton) to the plate. The assay plate is stored at −80° C. and thawed to perform the ELISA readout.
At day 1, the ELISA plate is coated with the mouse anti-FLAG antibody (2 μg/mL diluted in PBS, 100 μL/well) and incubated overnight at 4° C.
At day 2, the plate is washed once with 150 μL/well PBS. 200 μL/well blocking buffer (PBS with 3% BSA) is added and the plate is incubated for 4 h at RT. The plate is washed with 150 μL/well high salt washing buffer (20 mM Na2HPO4, 0.5% Triton X-100, 0.1% SDS, 0.1% BSA and 1 M NaCl) followed by one wash with 150 μL/well low salt washing buffer (20 mM Na2HPO4, 0.5% Triton X-100, 0.1% SDS, 0.1% BSA and 150 mM NaCl). Meanwhile, the cell lysate plate is thawed, two wells of the same condition are pooled (2×50 μL) and added to the ELISA plate. The ELISA plate is incubated overnight at 4° C.
At day 3, the ELISA plate is washed twice with 150 μL/well high salt washing buffer followed by two washes with low salt washing buffer. 100 μL/well detection antibody for pPASK (phospho-Akt substrate (RXXS*/T*) (110B7E) rabbit antibody (Cell Signaling Technology, Inc., Cat #9614) 2 μg/mL diluted in PBS with 3% BSA and 1×Halt™ protease and phosphatase inhibitor cocktail (Thermo Fisher Scientific, Inc., Cat #78447)) is added and incubated for 2 h at RT. The plate is washed twice with high and low salt wash buffer (150 μL/well) and 100 μL/well of an HRP antibody (swine anti-rabbit HRP antibody (Agilent Technologies, Inc., Cat #P039901) diluted 1/2000 in PBS with 3% BSA and 1×Halt™ protease and phosphatase inhibitor cocktail) is added to the plate, followed by an incubation for 1 h at RT in the dark (plate sealed with aluminum seal). The plate is washed twice with high and low salt wash buffer (150 μL/well) and 100 μL/well of SuperSignal™ ELISA Pico Chemiluminescent Substrate (Thermo Fisher Scientific, Inc., Cat #37070)(premix part 1 and part 2, 1/1) is added. The plate is incubated for 4 min at RT before measuring luminescence on the Luminoskan™ Ascent (Thermo Fisher Scientific, Inc.) (PMT default voltage; 100 ms integration time). […]
(In general: ELISA stands for enzyme-linked immunosorbent assay.)

The target in experiment [2] is T2, human PASK (Homo sapiens, UniProt Q96RG2).
T2 construct: purchased ThermoFisher Scientific PR7013A
T2 sequence (Q96RG2 whole entry): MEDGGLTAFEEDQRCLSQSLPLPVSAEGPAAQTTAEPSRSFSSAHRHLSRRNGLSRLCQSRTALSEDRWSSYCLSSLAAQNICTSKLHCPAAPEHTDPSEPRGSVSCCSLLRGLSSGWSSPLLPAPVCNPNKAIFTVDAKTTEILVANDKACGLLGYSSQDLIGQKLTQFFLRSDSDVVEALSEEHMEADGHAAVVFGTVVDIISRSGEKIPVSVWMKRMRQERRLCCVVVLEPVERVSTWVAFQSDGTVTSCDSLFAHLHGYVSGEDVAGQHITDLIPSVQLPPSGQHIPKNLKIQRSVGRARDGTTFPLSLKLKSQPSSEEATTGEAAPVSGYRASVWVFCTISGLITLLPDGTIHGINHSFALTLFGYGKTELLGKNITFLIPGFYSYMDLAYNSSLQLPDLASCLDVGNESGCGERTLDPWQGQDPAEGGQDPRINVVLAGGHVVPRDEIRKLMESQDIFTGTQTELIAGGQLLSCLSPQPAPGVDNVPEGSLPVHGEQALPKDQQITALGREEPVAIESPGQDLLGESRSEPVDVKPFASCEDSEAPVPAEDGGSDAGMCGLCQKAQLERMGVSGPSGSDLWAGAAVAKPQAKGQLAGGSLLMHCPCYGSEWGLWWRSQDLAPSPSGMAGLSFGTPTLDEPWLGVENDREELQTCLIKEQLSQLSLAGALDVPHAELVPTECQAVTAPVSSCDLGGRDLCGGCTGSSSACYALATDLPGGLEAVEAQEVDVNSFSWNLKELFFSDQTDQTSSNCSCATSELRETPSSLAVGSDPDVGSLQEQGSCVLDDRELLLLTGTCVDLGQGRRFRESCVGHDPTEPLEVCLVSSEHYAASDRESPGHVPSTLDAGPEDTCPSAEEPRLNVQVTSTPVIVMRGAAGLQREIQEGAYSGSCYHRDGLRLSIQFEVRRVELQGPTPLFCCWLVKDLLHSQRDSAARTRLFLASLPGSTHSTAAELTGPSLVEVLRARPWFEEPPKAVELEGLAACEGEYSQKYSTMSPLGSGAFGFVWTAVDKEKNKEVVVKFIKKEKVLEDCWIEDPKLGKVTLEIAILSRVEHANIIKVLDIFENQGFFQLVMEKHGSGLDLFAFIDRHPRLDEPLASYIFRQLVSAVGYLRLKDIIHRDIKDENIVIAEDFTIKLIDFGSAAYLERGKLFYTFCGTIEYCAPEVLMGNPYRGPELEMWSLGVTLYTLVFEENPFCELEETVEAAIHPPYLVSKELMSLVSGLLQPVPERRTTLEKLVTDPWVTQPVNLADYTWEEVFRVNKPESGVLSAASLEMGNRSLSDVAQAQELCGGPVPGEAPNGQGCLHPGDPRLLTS
As to the kind of experiment: ADP-Glo kinase assay. It is filed as biochemical. As to conditions: ADPGlo PASK kinase assay, 25 μM ATP, ZIPtide 25 μM. In a few lines: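 Human recombinant PASK phosphorylating ZIPtide peptide with ATP, 120 min at RT; compounds in 10-point 1/5 dilution series, 1% DMSO final. ADP formed measured by ADP-Glo luminescence after ATP depletion; percent inhibition fitted to dose-response curves for averaged IC50.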
(In general: ADP-Glo first removes unused ATP, then detects ADP through luciferase.)

Experiment [3] has as its target T2, human PASK. Nature of the experiment: 33P radioactive kinase assay. The following applies: 33P radioactive PASK kinase assay, 10 μM ATP, ZIPtide 1 μM. The experiment is classed as biochemical. The method, then: The principle of the ^33P radioactive kinase assay consists in measuring the incorporated ^33P into the ZIPtide peptide substrate when phosphorylated by human PASK using [^33P]-[…]-ATP and ATP, which correlates with kinase activity.
The test compounds are prepared as a serial dilution of 10 point dose responses with 1/5 dilution steps in 100% DMSO starting from 0.2 or 2 mM highest concentration, diluted 1/20 in water and 5 μL is transferred to the assay plates (Greiner, Cat #651201).
1% DMSO and 10 μM staurosporine final concentrations are used respectively as negative and positive controls.
11 μL of enzyme-substrate mixture is added on the assay plates. The reactions are started by adding 9 μL ATP mixture, consisting of non-labeled and ^33P-labeled ATP, on the assay plates.
The reactions are stopped by adding 25 μL phosphoric acid (150 mM) to the reactions.
The completely terminated kinase reactions are transferred using a harvester on pre-wetted UniFilter-96 plates (UniFilter-96 GF/B, PerkinElmer Inc., Cat #6005177).
After harvesting the kinase reactions, the filter plates are washed 6 times with phosphoric acid (75 mM). The back of the UniFilter-96 plates are sealed and 40 μL MicroScint-20 (PerkinElmer Inc., Cat #6013621) is added to each well. The top of each plate is sealed with TopSeal-A (PerkinElmer Inc., Cat #6050185). Read-out is performed with a TopCount instrument (PerkinElmer Inc.).
Raw data are generated following the read-out performed on the TopCount, used to calculate percentage inhibition (PIN) values and plotted to generate dose response curves and derive the average half maximal inhibitory concentrations (IC50) reported in Table VI.

Some results are limits rather than exact numbers.

T1 sequence (Q96RG2 with tags, fused parts or gaps): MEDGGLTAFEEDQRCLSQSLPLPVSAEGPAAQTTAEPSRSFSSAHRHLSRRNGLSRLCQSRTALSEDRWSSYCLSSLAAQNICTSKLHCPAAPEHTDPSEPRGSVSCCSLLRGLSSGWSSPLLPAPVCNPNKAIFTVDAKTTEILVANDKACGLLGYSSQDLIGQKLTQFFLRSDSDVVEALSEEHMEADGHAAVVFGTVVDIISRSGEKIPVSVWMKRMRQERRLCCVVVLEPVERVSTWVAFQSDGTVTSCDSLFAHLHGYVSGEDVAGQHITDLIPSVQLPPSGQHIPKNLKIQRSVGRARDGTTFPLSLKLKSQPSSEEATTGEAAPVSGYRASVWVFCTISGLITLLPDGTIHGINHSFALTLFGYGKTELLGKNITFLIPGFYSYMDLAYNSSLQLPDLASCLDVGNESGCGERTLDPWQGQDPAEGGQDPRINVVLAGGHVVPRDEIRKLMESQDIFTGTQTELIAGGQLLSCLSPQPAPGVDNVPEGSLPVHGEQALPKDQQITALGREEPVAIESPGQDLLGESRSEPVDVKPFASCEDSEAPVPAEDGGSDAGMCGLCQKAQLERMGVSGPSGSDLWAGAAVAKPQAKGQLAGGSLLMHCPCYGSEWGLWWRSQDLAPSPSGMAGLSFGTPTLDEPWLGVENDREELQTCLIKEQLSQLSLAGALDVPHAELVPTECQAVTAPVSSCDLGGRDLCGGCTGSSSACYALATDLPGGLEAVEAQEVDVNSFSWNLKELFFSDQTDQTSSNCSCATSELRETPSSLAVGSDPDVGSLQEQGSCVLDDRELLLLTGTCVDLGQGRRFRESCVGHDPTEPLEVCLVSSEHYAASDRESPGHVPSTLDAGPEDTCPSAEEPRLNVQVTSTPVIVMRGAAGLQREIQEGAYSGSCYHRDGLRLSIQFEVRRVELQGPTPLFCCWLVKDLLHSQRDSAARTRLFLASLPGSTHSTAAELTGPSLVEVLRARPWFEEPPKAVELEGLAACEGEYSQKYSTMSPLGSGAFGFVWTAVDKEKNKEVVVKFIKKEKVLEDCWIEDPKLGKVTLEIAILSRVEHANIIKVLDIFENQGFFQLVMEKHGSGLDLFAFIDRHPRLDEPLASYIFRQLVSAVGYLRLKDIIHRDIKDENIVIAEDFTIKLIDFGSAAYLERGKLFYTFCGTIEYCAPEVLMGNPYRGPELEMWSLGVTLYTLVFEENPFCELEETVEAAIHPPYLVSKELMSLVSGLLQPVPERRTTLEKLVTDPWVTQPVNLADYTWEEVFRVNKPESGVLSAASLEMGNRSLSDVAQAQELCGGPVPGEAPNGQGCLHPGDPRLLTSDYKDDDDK

For the compound `COc1nc(-c2ccn3ncc(-c4c(C)nn(C)c4C)c3c2)sc1C(=O)O` [Cpd 8, 4-methoxy-2-[3-(1,3,5 trimethylpyrazol-4-yl)pyrazolo[1,5-a]pyridin-5-yl]thiazole-5-carboxylic acid], the IC50 in experiment [1] was greater than 5000 nM; in experiment [2], 0.01 to 10 nM; in experiment [3], 0.01 to 10 nM.

Take `CCOc1nc(-c2ccn3ncc(-c4c(C)nn(C)c4C)c3c2)sc1C(=O)O` [Cpd 9, 4-ethoxy-2-[3-(1,3,5-trimethylpyrazol-4-yl)pyrazolo[1,5-a]pyridin-5-yl]thiazole-5-carboxylic acid]: the IC50 is 500 to 1000 nM in experiment [1], 0.01 to 10 nM in experiment [2] and 0.01 to 10 nM in experiment [3].

Turning to `CCn1nc(C)c(-c2cnn3ccc(-c4cc(C(=O)O)co4)cc23)c1C` [Cpd 28, 5-[3-(1-ethyl-3,5-dimethyl-pyrazol-4-yl)pyrazolo[1,5-a]pyridin-5-yl]furan-3-carboxylic acid], the IC50 in experiment [1] was in the range of 500 to 1000 nM; in experiment [2] it was 0.01 to 10 nM; in experiment [3] it was 0.01 to 10 nM.

With `Cc1nn(C(F)F)c(C)c1-c1cnn2ccc(-n3cc(C(=O)O)cn3)cc12` [Cpd 69, 1-[3-[1-(difluoromethyl)-3,5-dimethyl-pyrazol-4-yl]pyrazolo[1,5-a]pyridin-5-yl]pyrazole-4-carboxylic acid], the IC50 in experiment [1] is greater than 5000 nM; in experiment [2], 0.01 to 10 nM.

In the case of `COc1nc(-c2ccn3ncc(-c4c(C)nn(C(C)C(F)(F)F)c4C)c3c2)sc1C(=O)O` (centres unmarked) [Cpd 85, 2-[3-[3,5-dimethyl-1-(2,2,2-trifluoro-1-methyl-ethyl)pyrazol-4-yl]pyrazolo[1,5-a]pyridin-5-yl]-4-methoxy-thiazole-5-carboxylic acid], the results for the IC50 in experiment [1] and in experiment [2] were 1000 to 5000 nM and 0.01 to 10 nM, respectively.

Consider `Cc1c(-c2cnn3ccc(-n4cc(C(=O)O)cn4)cc23)c(C(F)(F)F)nn1C(C)C` [Cpd 76, 1-[3-[1-isopropyl-5-methyl-3-(trifluoromethyl)pyrazol-4-yl]pyrazolo[1,5-a]pyridin-5-yl]pyrazole-4-carboxylic acid], for which the values for the IC50 in experiment [1] and in experiment [2] were 1000 to 5000 nM and 0.01 to 10 nM, respectively.

`Cc1c(-c2cnn3ccc(-c4cc(C(=O)O)co4)cc23)c(C(F)(F)F)nn1C` [Cpd 23, 5-[3-[1,5-dimethyl-3-(trifluoromethyl)pyrazol-4-yl]pyrazolo[1,5-a]pyridin-5-yl]furan-3-carboxylic acid]: the IC50 in experiment [1] lay in the range of 0.1 to 500 nM; in experiment [3] it was 0.01 to 10 nM.

As to `Cc1nn(CC(F)(F)F)c(C)c1-c1cnn2ccc(-n3cc(C(=O)O)cn3)cc12` [Cpd 62, 1-[3-[3,5-dimethyl-1-(2,2,2-trifluoroethyl)pyrazol-4-yl]pyrazolo[1,5-a]pyridin-5-yl]pyrazole-4-carboxylic acid], the IC50 in experiment [1] is greater than 5000 nM; in experiment [2], 0.01 to 10 nM.

In the case of `CCOc1nc(-c2ccn3ncc(-c4c(C)nn(C(C)C)c4C)c3c2)sc1C(=O)O` [Cpd 65, 4-ethoxy-2-[3-(1-isopropyl-3,5-dimethyl-pyrazol-4-yl)pyrazolo[1,5-a]pyridin-5-yl]thiazole-5-carboxylic acid], the IC50 in experiment [1] is 0.1 to 500 nM; in experiment [2], 0.01 to 10 nM.

On to `COc1nn(-c2ccn3ncc(-c4c(C)nn(CC(F)(F)F)c4C)c3c2)cc1C(=O)O` [Cpd 68, 1-[3-[3,5-dimethyl-1-(2,2,2-trifluoroethyl)pyrazol-4-yl]pyrazolo[1,5-a]pyridin-5-yl]-3-methoxy-pyrazole-4-carboxylic acid], for which the IC50 in experiment [1] was greater than 5000 nM; in experiment [2], 0.01 to 10 nM.

For the compound `Cc1nn(C)c(C)c1-c1cnn2ccc(-c3nc(C4CC4)c(C(=O)O)s3)cc12` [Cpd 86, 4-cyclopropyl-2-[3-(1,3,5-trimethylpyrazol-4-yl)pyrazolo[1,5-a]pyridin-5-yl]thiazole-5-carboxylic acid], the IC50 lay within 0.1 to 500 nM in experiment [1] and 0.01 to 10 nM in experiment [2].

Turning to `Cc1nn(C)c(C)c1-c1cnn2ccc(-c3nc(OCC(F)(F)F)c(C(=O)O)s3)cc12` [Cpd 90, 4-(2,2,2-trifluoroethoxy)-2-[3-(1,3,5-trimethylpyrazol-4-yl)pyrazolo[1,5-a]pyridin-5-yl]thiazole-5-carboxylic acid], the IC50 in experiment [1] was 500 to 1000 nM; in experiment [2] it was 0.01 to 10 nM.

`COc1nn(-c2ccn3ncc(-c4c(C)nn(C(C)C)c4C)c3c2)cc1C(=O)O` [Cpd 66, 1-[3-(1-isopropyl-3,5-dimethyl-pyrazol-4-yl)pyrazolo[1,5-a]pyridin-5-yl]-3-methoxy-pyrazole-4-carboxylic acid]: the IC50 in experiment [1] is greater than 5000 nM; in experiment [2], 0.01 to 10 nM.

For `COc1nc(-c2ccn3ncc(-c4c(C)nn(C(C)C)c4C)c3c2)sc1C(=O)O` [Cpd 74, 2-[3-(1-isopropyl-3,5-dimethyl-pyrazol-4-yl)pyrazolo[1,5-a]pyridin-5-yl]-4-methoxy-thiazole-5-carboxylic acid], the IC50 in experiment [1] was greater than 5000 nM; in experiment [2], 0.01 to 10 nM.

Consider `CCOc1nc(-c2ccn3ncc(-c4c(C)nn(C(F)F)c4C)c3c2)sc1C(=O)O` [Cpd 72, 2-[3-[1-(difluoromethyl)-3,5-dimethyl-pyrazol-4-yl]pyrazolo[1,5-a]pyridin-5-yl]-4-ethoxy-thiazole-5-carboxylic acid], for which the IC50 was in the range of 1000 to 5000 nM in experiment [1] and 0.01 to 10 nM in experiment [2].

In the case of `COc1nc(-c2ccn3ncc(-c4c(C(F)(F)F)nn(C)c4C)c3c2)sc1C(=O)O` [Cpd 89, 2-[3-[1,5-dimethyl-3-(trifluoromethyl)pyrazol-4-yl]pyrazolo[1,5-a]pyridin-5-yl]-4-methoxy-thiazole-5-carboxylic acid], the values for the IC50 in experiment [1] and in experiment [2] were 1000 to 5000 nM and 0.01 to 10 nM, respectively.

By IC50 is commonly meant the midpoint of a concentration-inhibition curve.
